Laboratory results from US10308607B2, “Fucosidase inhibitors” (HORIZON ORPHAN LLC, priority 2015, dated 2019).
Where “and” joins values, the source holds several entries; their conditions need not be identical. Equal values may be shown once. Read-outs that look alike come from different tables or passages of the source.

Tests used:
SKOV3 = assay: Multiplexed cytotoxicity assay; type: cell-based; conditions: SKOV3, ovary carcinoma, 72 hour
Protocol: (§1) To assess the cytotoxicity of compound II (see Example 2) in cancer and normal cells, the cells were grown in RPMI1640, 10% FBS, 2 mM L-alanyl-L-Glutamine, 1 mM Na Pyruvate or a special medium in a humidified atmosphere of 5% CO2 at 37° C. Cells were seeded into 384-well plates and incubated in a humidified atmosphere of 5% CO2 at 37° C. Compound II was added 24 hours post cell seeding. At the same time, a time zero untreated cell plate was generated.
(§2) After a 72 hour incubation period, cells were fixed and stained with fluorescently labeled antibodies and nuclear dye to allow visualization of nuclei, apoptotic cells and mitotic cells. Apoptotic cells were detected using an anti-active caspase-3 antibody. Mitotic cells were detected using an anti phospho-histone-3 antibody.
(§3) Compound II was serially diluted 3.16-fold and assayed over 9 concentrations. Automated fluorescence microscopy was carried out using a GE Healthcare IN Cell Analyzer 1000, and images were collected with a 4× objective.
(§4) Twelve bit tiff images were acquired using the InCell Analyzer 1000 3.2 and analyzed with Developer Toolbox 1.6 software. EC50 and IC50 values were calculated using nonlinear regression to fit data to a sigmoidal 4 point, 4 parameter One-Site dose response model, where: y (fit)=A+[(B−A)/(1+((C/x)^D))]. Curve-fitting, EC50/IC50 calculations and report generation are performed using a custom data reduction engine MathIQ based software (AIM).
(§5) The multiplexed cytotoxicity assay uses a cell image based analysis technique where cells are fixed and stained with fluorescently labeled antibodies and nuclear dye to visualize nuclei, and apoptotic and mitotic cells. Apoptotic cells are detected using an anti-active caspase-3 antibody. Mitotic cells are detected using an anti phospho-histone-3 antibody. Cell proliferation is measured by the signal intensity of the incorporated nuclear dye. The cell proliferation assay output is referred to as the relative cell count. To determine the cell proliferation end point, the cell proliferation data output is transformed to percent of control (POC) using the following formula: POC=relative cell count(compound wells)/relative cell count(vehicle wells)×100.
(§6) Relative cell count IC50 is the test compound concentration at 50% of maximal possible response. A relative cell count EC50 is the test compound concentration at the curve inflection point or half the effective response (parameter C of the fitted curve solution). GI50 is the concentration needed to reduce the observed growth by half. This is the concentration that inhibits the growth midway between untreated cells and the number of cells seeded in the well (Time zero value).
(§7) The activated caspase-3 marker labels cells from early to late stage apoptosis. The output is shown as a fold increase of apoptotic cells over vehicle background normalized to the relative cell count in each well. Concentrations of test compound that cause a 5-fold induction in the caspase-3 signal indicates significant apoptosis induction. Wells with concentrations higher than the relative cell count IC95 are eliminated from the caspase3 induction analysis.
(§8) The phospho-histone-3 marker labels mitotic cells. The output is shown as a fold induction of mitotic cells over vehicle background normalized to the relative cell count in each well. When the fold induction of mitotic cell signal over background is ˜1, there is “no effect” on the cell cycle. Two or more fold increase in phospho-histone-3 signal over vehicle background indicates significant test compound induction of mitotic block.
(§9) Two or more fold decrease in the phospho-histone-3 signal may indicate G1/S block only when cytotoxicity levels are below the measured relative cell count IC95. […]

HUVEC = assay: Multiplexed cytotoxicity assay; type: cell-based; conditions: normal endothelium, 72 hour
Protocol: as §1, §2, §3, §4, §5, §6, §7, §8, §9

NHDF = assay: Multiplexed cytotoxicity assay; type: cell-based; conditions: normal skin, 72 hour
Protocol: as §1, §2, §3, §4, §5, §6, §7, §8, §9

HRPTEpiC = assay: Multiplexed cytotoxicity assay; type: cell-based; conditions: normal renal, 72 hour
Protocol: as §1, §2, §3, §4, §5, §6, §7, §8, §9

K562 = assay: Multiplexed cytotoxicity assay; type: cell-based; conditions: K562, blood leukemia, 72 hour
Protocol: as §1, §2, §3, §4, §5, §6, §7, §8, §9

[1] = Multiplexed cytotoxicity assay; type: cell-based; conditions: human, read-out: Cytotoxic EC50
Protocol: as §1, §2, §3, §4, §5, §6, §7, §8, §9

HT-1080 = assay: Multiplexed cytotoxicity assay; type: cell-based; conditions: HT-1080, connective sarcoma, 72 hour
Protocol: as §1, §2, §3, §4, §5, §6, §7, §8, §9

U-87 MG = assay: Multiplexed cytotoxicity assay; type: cell-based; conditions: brain blastoma, 72 hour
Protocol: as §1, §2, §3, §4, §5, §6, §7, §8, §9

BxPC-3 = assay: Multiplexed cytotoxicity assay; type: cell-based; conditions: BxPC-3, pancreas carcinoma, 72 hour
Protocol: as §1, §2, §3, §4, §5, §6, §7, §8, §9

HeLa = assay: Multiplexed cytotoxicity assay; type: cell-based; conditions: cervix carcinoma, 72 hour
Protocol: as §1, §2, §3, §4, §5, §6, §7, §8, §9

A549 = assay: Multiplexed cytotoxicity assay; type: cell-based; conditions: A549, lung carcinoma, 72 hour
Protocol: as §1, §2, §3, §4, §5, §6, §7, §8, §9

HUMSC = assay: Multiplexed cytotoxicity assay; type: cell-based; conditions: normal mesenchymal stem, 72 hour
Protocol: as §1, §2, §3, §4, §5, §6, §7, §8, §9

[2] = Biodistribution in mouse liver and colon; type: in vivo; conditions: for Conc. of cmpd II in colon / Mean conc. of cmpd II in colon: mouse colon; for Conc. of cmpd II in colon / Conc. of cmpd II in liver: individual animal; for Conc. of cmpd II in liver / Mean conc. of cmpd II in liver: mouse liver
Protocol: To assess the biodistribution of compound II (see Example 2) in mouse liver and colon, compound II was administered intravenously at a dosage of 1 mg/kg.

HepG2 cells = assay: Metabolic labeling with tagged-fucose, flow cytometry; type: cell-based, human
Protocol: Perturbations in glycoprotein metabolism were assayed by growing HepG2 cells without fucosidase inhibitors, or with compound II, III, or IV (see Example 2) for 24 hours, and then adding (3S,4R,5R,6S)-6-ethynyltetrahydro-2H-pyran-2,3,4,5-tetrayl tetra acetate, a per-acetylated analog of fucose containing an alkyne moiety in place of the 5′-methyl group (Click-iT™ Fucose Alkyne, Molecular Probes, Eugene, Oreg.) for an additional 48 hours. Cells were fixed, permeabilized, washed, and stained with Alexa Fluor 488 Azide to orthogonally label glycoproteins incorporating the fucose analog. Cells were then analyzed for fluorescence using a Guava 6HT-2L flow cytometer (ThermoFisher).

HepG2 = assay: Multiplexed cytotoxicity assay; type: cell-based, human; conditions: HepG2, liver carcinoma, 72 hour
Protocol: as §1, §2, §3
as §4, with “Curve-fitting, EC50/IC50 calculations and report generation are performed using a custom data reduction engine MathIQ based software (AIM).” left out

[3] = Multiplexed cytotoxicity assay; type: cell-based, human; conditions: human, HepG2 cells (liver carcinoma), read-out: Cytotoxic EC50
Protocol: as §1, §2, §3
as §4, with “Curve-fitting, EC50/IC50 calculations and report generation are performed using a custom data reduction engine MathIQ based software (AIM).” left out

- Conc. of cmpd II in colon ([2]; IV 1 mg/kg qdx1, 1 h): 1770 ng/g and 1640 ng/g and 1930 ng/g
- Mean conc. of cmpd II in colon ([2]; IV 1 mg/kg qdx1, 1 h): 1780 ng/g
- Conc. of cmpd II in colon ([2]; IV 1 mg/kg qdx1, 8 h): 638 ng/g and 289 ng/g and 872 ng/g
- Mean conc. of cmpd II in colon ([2]; IV 1 mg/kg qdx1, 8 h): 600 ng/g
- Conc. of cmpd II in liver ([2]; IV 1 mg/kg qdx1, 1 h): 298 ng/g and 301 ng/g and 188 ng/g
- Mean conc. of cmpd II in liver ([2]; IV 1 mg/kg qdx1, 1 h): 262 ng/g
- Conc. of cmpd II in liver ([2]; IV 1 mg/kg qdx1, 8 h): 9.03 ng/g and 7.64 ng/g and 12.9 ng/g
- Mean conc. of cmpd II in liver ([2]; IV 1 mg/kg qdx1, 8 h): 9.86 ng/g
Structure (SMILES): C[C@@H]1N[C@H](CNC(=O)c2cccc3c2C(=O)c2ccccc2-3)[C@@H](O)[C@H](O)[C@@H]1O [Compound II]
- G1/S arrest (SKOV3): 98 µM
- G1/S arrest (HUVEC): 14 µM
- G1/S arrest (NHDF): 14 µM
- G1/S arrest (HRPTEpiC): 10 µM
- G1/S arrest (K562): 93 µM
- EC50 at 72 h ([1]; A549 cells (lung carcinoma)): 29 µM
- EC50 at 72 h ([1]; BxPC-3 cells (pancreas carcinoma), BxPC-3, pancreas carcinoma): 43 µM
- EC50 at 72 h ([1]; HPH (normal primary hepatocytes), normal primary hepatocyte): > 100 µM
- EC50 at 72 h ([1]; HRPTEpiC cells (normal renal)): 72 µM
- EC50 at 72 h ([1]; HT-29 cells (colon carcinoma), HT-29, colon carcinoma): 31 µM
- EC50 at 72 h ([1]; HT-1080 cells (connective sarcoma), HT-1080, connective sarcoma): 21 µM
- EC50 at 72 h ([1]; HUMSC cells (normal mesenchymal stem cells)): 9 µM
- EC50 at 72 h ([1]; HUVEC cells (normal endothelium)): 14 µM
- EC50 at 72 h ([1]; HeLa cells (cervix carcinoma)): 47 µM
- EC50 at 72 h ([1]; K562 cells (blood leukemia)): 98 µM
- EC50 at 72 h ([1]; LNCaP cells (prostate carcinoma)): 54 µM
- EC50 at 72 h ([1]; MDA-MB-231 cells (breast carcinoma), MDA-MB-231, breast carcinoma): 44 µM
- EC50 at 72 h ([1]; NHDF cells (normal skin)): 22 µM
- EC50 at 72 h ([1]; SKOV3 cells (ovary carcinoma)): > 100 µM
- EC50 at 72 h ([1]; SNU-423 cells (liver carcinoma), SNU-423, liver carcinoma): > 100 µM
- EC50 at 72 h ([1]; U-87 MG cells (brain blastoma)): 34 µM
- G1/S arrest (HT-1080): 78 µM
- G1/S arrest (U-87 MG): 26 µM
- G1/S arrest (BxPC-3): 55 µM
- G1/S arrest (HeLa): 70 µM
- G1/S arrest (A549): 21 µM
- G1/S arrest (HUMSC): 10 µM
- Mean Green Fluorescence (GRN-HLog) (HepG2 cells; HepG2, 24 hours compound then 48 hours fucose alkyne, Alexa Fluor 488 Azide): 8433
- Fold over vehicle (HepG2 cells; mean green fluorescence, HepG2): 2.98
- G1/S arrest (HepG2): 36 µM
- EC50 at 72 h [3]: 44 µM
